What was measured:
[1] = test system: Phakopsora pachyrhizi; experiment: Phakopsora pachyrhizi / soybean / leaf disc preventative (Asian soybean rust); assay type: in vivo; details: foliar, 200 ppm in the applied formulation, soybean leaf disks, inoculated one day after application, vs untreated, 12 to 14 days after application, read-out: disease control
Description: (§1) Leaf disks or leaf segments of various plant species are cut from plants grown in a greenhouse. The cut leaf disks or segments are placed in multiwell plates (24-well format) onto water agar. The leaf disks are sprayed with a test solution before (preventative) or after (curative) inoculation. Compounds to be tested are prepared as DMSO solutions (max. 10 mg/ml) which are diluted to the appropriate concentration with 0.025% Tween20 just before spraying. The inoculated leaf disks or segments are incubated under defined conditions (temperature, relative humidity, light, etc.) according to the respective test system. A single evaluation of disease level is carried out 3 to 14 days after inoculation, depending on the pathosystem. Percent disease control relative to the untreated check leaf disks or segments is then calculated.
Example 3: Fungicidal Activity Against Phakopsora pachyrhizi/Soybean/Leaf Disc Preventative (Asian Soybean Rust)
Soybean leaf disks are placed on water agar in multiwell plates (24-well format) and sprayed with the Formulated test compound diluted in water. One day after application leaf discs are inoculated by spraying a spore suspension on the lower leaf surface. After an incubation period in a climate cabinet of 24-36 hours in darkness at 20° C. and 75% rh leaf disc are kept at 20° C. with 12 h light/day and 75% rh. The activity of a compound is assessed as percent disease control compared to untreated when an appropriate level of disease damage appears in untreated check leaf disks (12 to 14 days after application).
(§2) The following compounds at 200 ppm in the applied Formulation give at least 80% disease control in this test when compared to untreated control leaf disks under the same conditions, which show extensive disease development.

[2] = test system: Puccinia recondita f. Sp. Tritici; experiment: Puccinia recondita f. sp. tritici / wheat / leaf disc preventative (brown rust); assay type: in vivo; details: foliar, 200 ppm in the applied formulation, wheat leaf segments cv. Kanzler, inoculated 1 day after application, vs untreated, 7 to 9 days after application, read-out: disease control
Description: as §1
Example 1: Fungicidal Activity Against Puccinia recondita f. Sp. Tritici/Wheat/Leaf Disc Preventative (Brown Rust)
Wheat leaf segments cv. Kanzler were placed on agar in multiwell plates (24-well format) and sprayed with the Formulated test compound diluted in water. The leaf disks were inoculated with a spore suspension of the fungus 1 day after application. The inoculated leaf segments were incubated at 19° C. and 75% relative humidity (rh) under a light regime of 12 hours light/12 hours darkness in a climate cabinet and the activity of a compound was assessed as percent disease control compared to untreated when an appropriate level of disease damage appears in untreated check leaf segments (7 to 9 days after application).
as §2

[3] = test system: Glomerella lacenarium (Colletotrichum lacenarium); experiment: Glomerella lacenarium (Colletotrichum lacenarium) liquid culture / cucumber / preventative (anthracnose); assay type: cell-based; details: 20 ppm, liquid culture in PDB, 24° C., inhibition of growth measured photometrically 3 to 4 days after application, vs untreated, read-out: disease control
Description: Mycelia fragments or conidia suspensions of a fungus prepared either freshly from liquid cultures of the fungus or from cryogenic storage, are directly mixed into nutrient broth. DMSO solutions of the test compound (max. 10 mg/ml) are diluted with 0.025% Tween20 by a factor of 50 and 10 μl of this solution is pipetted into a microtiter plate (96-well format). The nutrient broth containing the fungal spores/mycelia fragments is then added to give an end concentration of the tested compound. The test plates are incubated in the dark at 24° C. and 96% relative humidity. The inhibition of fungal growth is determined photometrically after 2 to 7 days, depending on the pathosystem, and percent antifungal activity relative to the untreated check is calculated.
Example 4: Fungicidal Activity Against Glomerella lacenarium (Colletotrichum lacenarium) Liquid Culture/Cucumber/Preventative (Anthracnose)
Conidia of the fungus from cryogenic storage are directly mixed into nutrient broth (PDB-potato dextrose broth). After placing a (DMSO) solution of test compound into a microtiter plate (96-well format), the nutrient broth containing the fungal spores is added. The test plates are incubated at 24° C. and the inhibition of growth is measured photometrically 3 to 4 days after application.
The following compounds at 20 ppm in the applied Formulation give at least 80% disease control in this test when compared to untreated control under the same conditions, which show extensive disease development.

[4] = test system: Puccinia recondita f. Sp. Tritici; experiment: Puccinia recondita f. sp. tritici / wheat / leaf disc curative (brown rust); assay type: in vivo; details: foliar, 200 ppm in the applied formulation, wheat leaf segments cv. Kanzler, compound applied 1 day after inoculation, vs untreated, 6 to 8 days after application, read-out: disease control
Description: as §1
Example 2: Fungicidal Activity Against Puccinia recondita f. sp. tritici/Wheat/Leaf Disc Curative (Brown Rust)
Wheat leaf segments cv. Kanzler are placed on agar in multiwell plates (24-well format). The leaf segments are then inoculated with a spore suspension of the fungus. Plates were stored in darkness at 19° C. and 75% relative humidity. The Formulated test compound diluted in water was applied 1 day after inoculation. The leaf segments were incubated at 19° C. and 75% relative humidity under a light regime of 12 hours light/12 hours darkness in a climate cabinet and the activity of a compound was assessed as percent disease control compared to untreated when an appropriate level of disease damage appears in untreated check leaf segments (6 to 8 days after application).
as §2

O=C(Cc1ccc2c(c1)OCO2)Nc1ccc(-c2noc(C(F)(F)F)n2)cc1 [Compound 1.12, 2-(1,3-benzodioxol-5-yl)-N-[4-[5-(trifluoromethyl)-1,2,4-oxadiazol-3-yl]phenyl]acetamide]
≥ 80%: pest or weed control at 200 ppm [1] | pest or weed control at 200 ppm [2] | inhibition of growth at 20 ppm [3]

COc1ncnc(OC)c1CC(=O)Nc1ccc(-c2noc(C(F)(F)F)n2)cc1 [Compound 1.36, 2-(4,6-dimethoxypyrimidin-5-yl)-N-[4-[5-(trifluoromethyl)-1,2,4-oxadiazol-3-yl]phenyl]acetamide]
≥ 80%: pest or weed control at 200 ppm [1] | pest or weed control at 200 ppm [2] | inhibition of growth at 20 ppm [3]

O=C(Nc1ccc(-c2noc(C(F)(F)F)n2)nc1)c1ccc(-n2ccnc2)cc1 [Compound 1.54, 4-imidazol-1-yl-N-[6-[5-(trifluoromethyl)-1,2,4-oxadiazol-3-yl]-3-pyridyl]benzamide]
≥ 80%: pest or weed control at 200 ppm [1] | pest or weed control at 200 ppm [2] | inhibition of growth at 20 ppm [3]

COc1ccc(CC(=O)Nc2ccc(-c3noc(C(F)(F)F)n3)cc2)cc1 [Compound 1.71, 2-(4-methoxyphenyl)-N-[4-[5-(trifluoromethyl)-1,2,4-oxadiazol-3-yl]phenyl]acetamide]
≥ 80%: pest or weed control at 200 ppm [1] | pest or weed control at 200 ppm [2] | inhibition of growth at 20 ppm [3]

O=C(Nc1ccc(-c2noc(C(F)(F)F)n2)cc1)C1CCCCO1 (stereo not drawn) [Compound 1.72, N-[4-[5-(trifluoromethyl)-1,2,4-oxadiazol-3-yl]phenyl] tetrahydropyran-2-carboxamide]
≥ 80%: pest or weed control at 200 ppm [1] | pest or weed control at 200 ppm [2] | inhibition of growth at 20 ppm [3]

O=C(CCO)Nc1ccc(-c2noc(C(F)(F)F)n2)cc1 [Compound 1.75, 3-hydroxy-N-[4-[5-(trifluoromethyl)-1,2,4-oxadiazol-3-yl]phenyl] propanamide]
≥ 80%: pest or weed control at 200 ppm [2] | pest or weed control at 200 ppm [4] | inhibition of growth at 20 ppm [3]

CSCC(C)C(=O)Nc1ccc(-c2noc(C(F)(F)F)n2)cc1 (stereo not drawn) [Compound 1.77, 2-methyl-3-methylsulfanyl-N-[4-[5-(trifluoromethyl)-1,2,4-oxadiazol-3-yl]phenyl] propanamide]
≥ 80%: pest or weed control at 200 ppm [2] | pest or weed control at 200 ppm [4] | inhibition of growth at 20 ppm [3]

CC(C)CC(=O)Nc1ccc(-c2noc(C(F)(F)F)n2)cc1 [Compound 1.85, 3-methyl-N-[4-[5-(trifluoromethyl)-1,2,4-oxadiazol-3-yl]phenyl]butanamide]
≥ 80%: pest or weed control at 200 ppm [1] | pest or weed control at 200 ppm [2] | inhibition of growth at 20 ppm [3]

CCCC(C)C(=O)Nc1ccc(-c2noc(C(F)(F)F)n2)cc1 (stereo not drawn) [Compound 1.86, 2-methyl-N-[4-[5-(trifluoromethyl)-1,2,4-oxadiazol-3-yl]phenyl] pentanamide]
≥ 80%: pest or weed control at 200 ppm [1] | pest or weed control at 200 ppm [2] | inhibition of growth at 20 ppm [3]

Cc1ccnn1CC(=O)Nc1ccc(-c2noc(C(F)(F)F)n2)cc1 [Compound 1.87, 2-(5-methylpyrazol-1-yl)-N-[4-[5-(trifluoromethyl)-1,2,4-oxadiazol-3-yl]phenyl]acetamide]
≥ 80%: pest or weed control at 200 ppm [2] | pest or weed control at 200 ppm [4] | inhibition of growth at 20 ppm [3]

CC1CC1C(=O)Nc1ccc(-c2noc(C(F)(F)F)n2)cc1 (stereo not drawn) [Compound 1.90, 2-methyl-N-[4-[5-(trifluoromethyl)-1,2,4-oxadiazol-3-yl]phenyl]cyclo-propanecarboxamide]
≥ 80%: pest or weed control at 200 ppm [1] | pest or weed control at 200 ppm [2] | inhibition of growth at 20 ppm [3]

CCCCC(=O)Nc1ccc(-c2noc(C(F)(F)F)n2)cc1 [Compound 1.92, N-[4-[5-(trifluoromethyl)-1,2,4-oxadiazol-3-yl]phenyl]pentanamide]
≥ 80%: pest or weed control at 200 ppm [1] | pest or weed control at 200 ppm [2] | inhibition of growth at 20 ppm [3]

CC(C)OCC(=O)Nc1ccc(-c2noc(C(F)(F)F)n2)cc1 [Compound 1.101, 2-isopropoxy-N-[4-[5-(trifluoromethyl)-1,2,4-oxadiazol-3-yl]phenyl]acetamide]
≥ 80%: pest or weed control at 200 ppm [2] | pest or weed control at 200 ppm [4] | inhibition of growth at 20 ppm [3]

O=C(Cn1cccn1)Nc1ccc(-c2noc(C(F)(F)F)n2)cc1 [Compound 1.104, 2-pyrazol-1-yl-N-[4-[5-(trifluoromethyl)-1,2,4-oxadiazol-3-yl]phenyl]acetamide]
≥ 80%: pest or weed control at 200 ppm [2] | pest or weed control at 200 ppm [4] | inhibition of growth at 20 ppm [3]

O=C(CCc1ccncc1)Nc1ccc(-c2noc(C(F)(F)F)n2)cc1 [Compound 1.107, 3-(4-pyridyl)-N-[4-[5-(trifluoromethyl)-1,2,4-oxadiazol-3-yl]phenyl] propanamide]
≥ 80%: pest or weed control at 200 ppm [2] | pest or weed control at 200 ppm [4] | inhibition of growth at 20 ppm [3]

O=C(Nc1ccc(-c2noc(C(F)(F)F)n2)cc1)C1CC1(F)F (stereo not drawn) [Compound 1.118, 2,2-difluoro-N-[4-[5-(trifluoromethyl)-1,2,4-oxadiazol-3-yl]phenyl]cyclo-propanecarboxamide]
≥ 80%: pest or weed control at 200 ppm [1] | pest or weed control at 200 ppm [2] | inhibition of growth at 20 ppm [3]

O=C(CC1CC1(F)F)Nc1ccc(-c2noc(C(F)(F)F)n2)cc1 (stereo not drawn) [Compound 1.124, 2-(2,2-difluorocyclopropyl)-N-[4-[5-(trifluoromethyl)-1,2,4-oxadiazol-3-yl]phenyl]acetamide]
≥ 80%: pest or weed control at 200 ppm [1] | pest or weed control at 200 ppm [2] | inhibition of growth at 20 ppm [3]

O=C(CC(F)(F)F)Nc1ccc(-c2noc(C(F)(F)F)n2)cc1 [Compound 1.125, 3,3,3-trifluoro-N-[4-[5-(trifluoromethyl)-1,2,4-oxadiazol-3-yl]phenyl] propanamide]
≥ 80%: pest or weed control at 200 ppm [1] | pest or weed control at 200 ppm [2] | inhibition of growth at 20 ppm [3]

CC1(C(=O)Nc2ccc(-c3noc(C(F)(F)F)n3)cc2)CC1 [Compound 2.11, 1-methyl-N-[4-[5-(trifluoromethyl)-1,2,4-oxadiazol-3-yl]phenyl] cyclopropane-carboxamide]
≥ 80%: pest or weed control at 200 ppm [1] | pest or weed control at 200 ppm [2] | inhibition of growth at 20 ppm [3]
